{"source": "patent US6514979B1", "about": "“Synergistic combinations of guanosine analog reverse transcriptase inhibitors and inosine monophosphate dehydrogenese inhibitors and uses therefor” (University of Maryland Biotechnology Institute, priority 1999, dated 2003)", "key": {"[1]": {"system": "HIV-1", "experiment": "combined effects of MA and available nucleoside analogs (Table 2)", "assay_type": "cell-based", "text": "Although MA directly depletes cellular guanosine pools through inhibition of IMPDH, this may result secondarily in perturbations of other cellular enzyme activities. Such perturbations could result in beneficial or detrimental therapeutic effects. The combined effects of MA and available nucleoside analogs are described in Table 2: […]"}, "[2]": {"system": "HIV-1 IIIb", "experiment": "p24 production by HIV-1 IIIb infected PHA-stimulated PBMCs, Greco interaction model", "assay_type": "cell-based", "conditions": "HIV IIIb in PBMCs; for IC50: p24 day 7, Greco model estimate", "experimental": "(§1) Primary PBMCs were separated from whole blood of HIV seronegative donors by density centrifugation over Ficoll-Hypaque (Sigma). The culture medium consisted of RPMI supplemented with 10% fetal bovine serum (FBS), 2 mM glutamine and penicillin/streptomycin (Gibco, Grand Island, N.Y.). For infection studies involving PBMCs, cells were stimulated with 10 μg/mL phytohemagglutinin (PHA; Boehringer Mannheim, Indianapolis, Ind.) and cultured for 3 days. Stimulated PBMCs were infected by incubation with virus at a multiplicity of infection of 1000 TCID50/d10^6 PBMC for 2 hours. PBMC were then washed three times with PBS and cultured in 5% CO2 at 37° C, in RPMI/10% FBS supplemented with 10 units/mL IL-2 (Boehringer Mannheim) and drugs as appropriate. PBMC were seeded in 96-well flat-bottom plates at a density of 2×10^5 PBMC/200 μL. Following three days of culture, half of the medium was replaced with fresh medium containing IL-2 and drugs. After 7 days of culture HIV-1 p24 production in the culture supernatant was assayed by ELISA (Coulter, Hialeah, Fla.).\nAdditive antiviral effect was analyzed according to the definition of Loewe, using the interaction model of Greco et al. as was described above. This model is fully parametric, and point estimates of the model parameters are obtained in a traditional weighted, nonlinear least-squares approach. The model follows the equation below: [formula]\nwhere α (alpha) is the synergism-antagonism interaction parameter, IC50.1 and IC50.2 are the drug concentrations resulting in 50% inhibition for drug 1 and drug 2, respectively; D1 and D2 are the concentration of drugs tested; Econ is the control effect in the absence of either drug, E is the observed effect , and m 1 and m 2 are the slope parameters for each drug. If the estimate of α is zero, the drug combination is additive; if α is positive, the interaction is synergistic; if α is negative, the interaction is antagonistic. […] That is, if the 95% confidence interval encompasses zero, the interaction is additive. […] This model was implemented using the ADAPT II programs (D'Argenio D. Z, Schumitzky A. ADAPT II: a program package for simulation identification and optimal experimental design. 1990. Biomedical Simulations Resource, Univ. Of Southern California, Los Angeles). Each drug combination was tested in triplicate so as to obtain an estimate of the variance of the effect at different drug concentration combinations.\nThe combined effect of abacavir and MA was examined in PBMC culture systems. PBMCs from a seronegative donor were stimulated with PHA and infected with the T-cell tropic isolate HIV-1 IIIb. At the clinically utilized dose (600 mg/day) of abacavir steady state peak serum levels are […] (4.47 μM; e.g.,see Ziagen package insert. Glaxo Wellcome, Inc., Research Triangle Park, N.C.). After a single 1000 mg dose of MA in a healthy individual, the mean peak serum level is 56.5 μM. Therefore, infected cells were cultured in the presence of abacavir from 0 to 4 μM, and in the presence of 0 to 1 μM of MA. On day 7 after infection the number of viable cells was determined by MTT assay (Boehringer Mannheim), and p24 antigen in the culture supernatant was measured.\nThe interaction of abacavir and MA in the suppression of HIV IIIb replication in PBMCs was analyzed using the Greco model as described above. Each data point was determined in triplicate. Each observation was weighted by the inverse of the observation variance. These parameters and their 95% confidence bounds are shown below: […]"}, "[3]": {"system": "cellular guanosine pools", "experiment": "addition of deoxynucleosides to the culture media", "assay_type": "cell-based", "conditions": "not shown", "text": "MA may synergize with abacavir via depletion of cellular guanosine pools, effectively increasing the intracellular concentration of abacavir. However, MA may also act via a general inhibitory effect on T lymphocyte proliferation, as has been hypothesized in the case of hydroxyurea (Lori F., Malykh A. G., Foli A., Maserati R., De Antoni A., Minoli L., Padrini D., Degli Antoni A., Barchi E., Jessen H., Wainberg M. A., Gallo R. C., Lisziewicz J. Combination of a drug targeting the cell with a drug targeting the virus controls human immunodeficiency virus type 1 resistance. AIDS Res Hum Retroviruses 1997; 13(16): 1403-9; De Boer R. J., Boucher C. A., Perelson A. S. Target cell availability and the successful suppression of HIV by hydroxyurea and didanosine. AIDS 1998; 12(13): 1567-70)."}, "[4]": {"system": "HIV-1", "conditions": "1-10 μM; cited from earlier work"}, "[5]": {"system": "neutrophil function", "conditions": "concentrations of up to 10 μM; cited from earlier work"}, "[6]": {"system": "IL-2 receptor signaling", "conditions": "high concentrations; cited from earlier work"}, "[7]": {"conditions": "single 1000 mg dose in a healthy individual; cited from earlier work"}, "[8]": {"system": "PBMC", "experiment": "MTT cell proliferation assay of PBMC cultures", "conditions": "0.5 μM MA", "protocol": "Cellular proliferation in culture in the presence or absence of MA and abacavir was measured using a commercial MMT cell proliferation assay, as per the manufacturer's instructions (Boehringer Mannheim)."}, "[9]": {"target": "inosine monophosphate dehydrogenase (IMPDH)", "conditions": "literature values; read-out: Ki for IMPDH inhibition; cited from earlier work"}, "[10]": {"target": "Type II isoform of IMPDH (Homo sapiens, UniProt P12268)", "conditions": "stimulated lymphocytes isoform; cited from earlier work"}, "[11]": {"system": "HIV reverse transcriptase M184V", "conditions": "cited from earlier work"}, "[12]": {"system": "Wild-type HIV", "experiment": "replication of wild-type HIV-1 in PBMCs, day 7 p24", "assay_type": "cell-based", "conditions": "Human immunodeficiency virus 1, PBMC; 4 μM abacavir", "experimental": "as §1"}, "[13]": {"system": "resistant HIV encoding M184V", "experiment": "replication of M184V mutant HIV-1 in PBMCs, day 7 p24", "assay_type": "cell-based", "conditions": "Human immunodeficiency virus 1, PBMC, read-out: inhibition of resistant HIV encoding M184V", "experimental": "as §1"}, "[14]": {"system": "HIV-1", "conditions": "monotherapy; cited from earlier work"}}, "note": "Counter-ions that a name gives are not always drawn. Like-named read-outs stand apart in the source and are kept apart here."}
{"smiles": "Nc1ccn([C@H]2CC[C@@H](CO)O2)c(=O)n1", "note": "[zalcitibine, 2′,3′-dideoxycytidine]", "values": [{"measurement": "antiviral effect of nucleoside analog alone", "setting": "[1]; concentration not given", "result": 3.9}]}
{"smiles": "OC[C@@H]1CC[C@H](n2cnc3c(O)ncnc32)O1", "note": "[didanosine, 2′,3′-dideoxyinosine]", "values": [{"measurement": "antiviral effect of nucleoside analog alone", "setting": "[1]; concentration not given", "result": 11}]}
{"smiles": "Cc1cn([C@H]2C[C@H](N=[N+]=[N-])[C@@H](CO)O2)c(=O)[nH]c1=O", "note": "[zidovudine, 3′-azido-3′-deoxythymidine]", "values": [{"measurement": "antiviral effect of nucleoside analog alone", "setting": "[1]; concentration not given", "result": 84}]}
{"smiles": "COc1c(C)c2c(c(O)c1C/C=C(\\C)CCC(=O)OCCN1CCOCC1)C(=O)OC2", "note": "[MA, 2-morpholinoethyl ester of mycophenolic acid]", "values": [{"measurement": "m MA (slope parameter)", "setting": "[2]; Greco model estimate", "result": 1.90}, {"measurement": "IC50", "setting": "[2]; read-out: IC50 MA", "result": 110, "unit": "nM"}, {"measurement": "IC50", "setting": "[2]; Human immunodeficiency virus 1, IIIB, PBMC, 168 h, read-out: IC50 MA", "result": 100, "unit": "nM"}, {"measurement": "antiviral effect of MA alone", "setting": "[1]; 0.125 μM MA", "result": 1.3}, {"measurement": "antiviral effect of MA alone", "setting": "[1]; 0.5 μM MA", "result": 9.3}, {"measurement": "inhibitory effect of MA after addition of deoxyadenosine", "setting": "[3]", "result": "no effect"}, {"measurement": "inhibitory effect of MA after addition of deoxyguanosine", "setting": "[3]", "result": "ablated the inhibitory effect"}, {"measurement": "effect on replication of HIV-1 in vitro", "setting": "[4]", "result": "inhibit ed the replication"}, {"measurement": "effect on neutrophil function", "setting": "[5]", "result": "do not inhibit neutrophil function"}, {"measurement": "effect on IL-2 receptor signaling", "setting": "[6]", "result": "do not disrupt IL-2 receptor signaling"}, {"measurement": "mean peak serum level", "setting": "[7]", "result": 56.5, "unit": "µM"}, {"measurement": "antiproliferative effect", "setting": "[8]", "result": "modest antiproliferative effect"}]}
{"smiles": "COc1c(C)c2c(c(O)c1C/C=C(\\C)CCC(=O)O)C(=O)OC2", "note": "[Mycophenolic acid]", "values": [{"measurement": "Ki", "setting": "[9]", "result": "2 to 10", "unit": "nM"}, {"measurement": "sensitivity of Type II isoform versus the isoform predominant in other cell lineages", "setting": "[10]", "result": "four times more sensitive"}]}
{"smiles": "Nc1ccn([C@@H]2CS[C@H](CO)O2)c(=O)n1", "note": "(relative stereo) [3TC, (2R,cis)4-amino-1-(2-hydroxymethyl-1,3-oxathiolan-5-yl)-(1H)-pyrimidin-2-one]", "values": [{"measurement": "resistance conferred by M184V", "setting": "[11]", "result": "high level resistance"}]}
{"smiles": "Cc1cn([C@H]2C=C[C@@H](CO)O2)c(=O)[nH]c1=O", "note": "[stavudine, 2′,3′-dihydro-3′-deoxythymidine]", "values": [{"measurement": "antiviral effect of nucleoside analog alone", "setting": "[1]; 2 μM", "result": 115}]}
{"smiles": "Nc1nc(NC2CC2)c2ncn([C@H]3C=C[C@@H](CO)C3)c2n1", "note": "[abacavir, (1S,cis)-4-[2-amino-6-(cyclopropylamino)-9H-purin-9-yl]-2-cyclopentene-1-methanol sulfate]", "values": [{"measurement": "m abacavir (slope parameter)", "setting": "[2]; Greco model estimate", "result": 0.70}, {"measurement": "IC50", "setting": "[2]; read-out: IC50 abacavir", "result": 630, "unit": "nM"}, {"measurement": "IC50", "setting": "[2]; Human immunodeficiency virus 1, IIIB, PBMC, 168 h, read-out: IC50 abacavir", "result": 626, "unit": "nM"}, {"measurement": "inhibition at 4 µM", "setting": "[12]", "result": 98, "unit": "%"}, {"measurement": "inhibition at 4 µM", "setting": "[13]", "result": 53, "unit": "%"}, {"measurement": "antiviral effect of nucleoside analog alone", "setting": "[1]; 2 μM", "result": 2.7}, {"measurement": "drop in plasma HIV-1 RNA", "setting": "[14]", "result": 1.55, "unit": "log"}]}
